# Laboratory results from patent US20190117657A1, “METHOD OF INHIBITING HIGH FAT DIET-RELATED CONDITIONS” (South Australian Health and Medical Research Institute …, priority 2016, published 2019).
# Columns and labels:
# [1] = tested on: MNKs; assay: eIF4E phosphorylation (P-eIF4E immunoblot) in 3T3-L1 cells as read-out of MNK activity; type: cell-based
# Text: Similar data obtained in three replicate experiments.
# The term “MNK inhibitor” as used herein is intended to refer to any compound that reduces the biological activity of MNK1 (including reducing the biological activity of one or both of splice variants MNK1 a and MNK1b) and/or MNK2 (including reducing the biological activity of one or both of splice variants MNK2a and MNK2b), including by reducing the amount of MNK1 and/or MNK2 expressed. For example, the MNK inhibitor may be a small organic molecule (also referred to as a “small molecule” herein), a peptide antagonist, an inhibitory antibody or fragment thereof, an interfering nucleotide molecule, an aptamer or other MNK inhibitor that inhibits the expression or biological activity as would be understood by those skilled in the art. The biological activity of MNK1 and MNK2 can be measured in a variety of ways, for example, by measuring phosphorylation of its substrate eIF4E to P-eIF4E using any suitable method known to those skilled in the art, for example, by performing an immunoblot or ELISA utilising a specific anti-P-eIF4E antibody, for example, the anti-phospho eIF4E (Ser209) antibody distributed by Merck Millipore, Catalogue No. 07-823 (Merck Millipore, Billerica, Mass., United States of America). […] Those skilled in the art will be aware of how to conduct suitable controls when measuring P-eIF4E levels. The MNK1 and/or MNK2 bioactivity can otherwise be measured using a cellular assay that can detect levels of MNK1 and/or MNK2 bioactivity. Antibodies that specifically detect phosphorylated MNK could also be used, for example, anti-P-MNK1 (Phospho-Mnk1 (Thr197/202) Antibody #2111; Cell Signaling Technology Inc, Danvers, Mass., United States of America). Additionally, those skilled in the art will appreciate that the MNK inhibitors should be safe for use for its intended purpose.
# Tissues were harvested in RIPA lysis buffer containing 50 mM TrisHCl, pH 7.4, 150 mM NaCl, 1% Triton X-100, 0.1% sodium deoxycholate, 0.1% sodium dodecyl sulfate, 1 mM ethylenediaminetetraaacteic acid (EDTA), 50 mM β-glycerolphosphate, 0.5 mM NaVO3, 0.1% 2-mercaptoethanol and protease inhibitors (Roche). After lysis, insoluble material was removed by centrifugation at 12,000 g for 10 min at 4° C. Protein content was determined by the Bradford protein assay (Bio-Rad). Immunoblotting was performed as described in Liu et al. (2014). Blots were visualised using a LI-COR Odyssey® Quantitative Imaging System. Primary antibodies as indicated in Table 5 were from Cell Signaling Technologies, except for anti-P-eIF4E (Merck Millipore). Secondary antibodies were obtained from Thermo Fisher Scientific Inc. (Waltham, Mass., United States of America) and used at 1:20,000 dilution.
# MNKs are the only kinases known to phosphorylate eIF4E, and accordingly, the phosphorylation of eIF4E (P-eIF4E) provides a direct read-out of MNK biological activity.
# (§1) Since eIF4E is only phosphorylated by the MNKs, its phosphorylation status is a reliable read-out of intracellular MNK activity. […] MNK2 is the main MNK in 3T3-L1 cells and in adipose tissue (Moore et al., 2016). In additional studies, tests were conducted to assess the effect of the MNK-I2 inhibitor on the induction of differentiation markers in 3T3-L1 cells.
# [2] = tested on: 3T3-L1 cells; assay: Lipid accumulation in differentiating 3T3-L1 cells (Oil Red O / triglyceride); type: cell-based; conditions: 10 μM, 3T3-L1 cells
# Method: (§2) For induction of 3T3-L1 (fibroblast) cell differentiation, pre-adipocytes were grown to 2 days post-confluence in DMEM supplemented with 10% FBS (day 0) and the medium was changed to DMEM supplemented with 10% FBS, insulin (167 nM), dexamethasone (0.5 μM), isobutylmethylxanthine (IBMX) (0.5 mM) and rosiglitazone (2 μM). After 48 h, the medium was replaced with medium containing DMEM supplemented with 10% (v/v) FBS and 167 nM insulin. On day 4, after inducing differentiation, and thereafter, the cells were cultured in DMEM with 10% FBS. The maintenance medium was changed every 48 h until the cells were utilised for experimentation (9 days from the initiation of differentiation).
# Assessment of intracellular triglyceride levels was performed using Oil Red O staining as described by others (Smith et al., 1988). Briefly, on day 9 of differentiation of the 3T3-L1 cells were fixed in 10% formalin for 1 hour. […] For quantification, cells were washed extensively with water to remove unbound dye, and 1 ml isopropanol was added to the stained 6-well culture plate. After 5 min, the absorbance of the oil red extract at 510 nm was measured, with an increased absorbance indicative of an increased lipid level within the cells.
# The amount of tissue-released triglyceride (TAG) was measured using a Triglyceride Quantification Kit (Abcam, ab65336).
# [3] = tested on: 3T3-L1 cells; assay: Induction of adipogenic gene mRNAs in differentiating 3T3-L1 cells (RT-qPCR); type: cell-based
# Method: Total RNA was isolated from tissues (frozen at the time of sampling) using Trizol reagent (Sigma-Aldrich) according to the manufacturer's instructions. RNA concentrations were determined by absorbance at 260 nm, while quality and integrity were evaluated via 260/230 and 260/280 ratios using a NanoDrop spectrophotometer (Thermo Fisher Scientific). RT-real time PCR amplification was carried out using the ImProm-II Reverse Transcription System (A3800; Promega, Madison, Wis., United States of America) with random primers following the manufacturer's protocol. Subsequently, real-time quantitative (q) PCR was performed using primer sequences described in Supplemental Table S1 of Moore CEJ et al., 2016, the content of which is hereby incorporated by reference in its entirety). The comparative CT method was used to measure the amplification of target mRNA levels compared with […] (B2M) mRNA. In FIG. 1A, the relative amount of each transcript was determined using the equation 2^−dCt, where dCt=(Ct target gene-Ct ref gene), and Ct=cycle threshold.
# as §2
# In order to study the role of MNK2 in adipocyte differentiation, 3T3-L1 cells were used in a similar manner to that described in Example 1. […]
# [4] = tested on: other protein kinases; conditions: cited from earlier work
# [5] = molecular target: T1, MNK2 (Mus musculus, UniProt Q8CDB0); assay: P-eIF4E in MNK1-KO mouse embryonic fibroblasts (reports on MNK2); type: cell-based
# T1 construct: endogenous in cells; host or cells: MNK1-KO mouse embryonic fibroblasts
# T1 sequence (Q8CDB0 whole entry): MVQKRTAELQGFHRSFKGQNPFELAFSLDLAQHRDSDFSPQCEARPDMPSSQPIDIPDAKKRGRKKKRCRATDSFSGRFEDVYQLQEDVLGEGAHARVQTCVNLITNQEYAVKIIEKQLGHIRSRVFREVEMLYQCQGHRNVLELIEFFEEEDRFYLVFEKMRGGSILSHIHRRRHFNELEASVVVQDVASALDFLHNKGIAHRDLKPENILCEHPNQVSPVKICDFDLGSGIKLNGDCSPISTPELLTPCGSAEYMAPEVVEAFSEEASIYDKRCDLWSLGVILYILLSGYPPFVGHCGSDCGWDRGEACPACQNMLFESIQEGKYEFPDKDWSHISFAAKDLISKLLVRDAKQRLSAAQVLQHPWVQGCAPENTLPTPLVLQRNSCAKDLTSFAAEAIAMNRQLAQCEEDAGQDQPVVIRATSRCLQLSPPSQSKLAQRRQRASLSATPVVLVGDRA
# [6] = molecular target: T2, MNK1 (Mus musculus, UniProt O08605); assay: P-eIF4E in MNK2-KO mouse embryonic fibroblasts (reports on MNK1); type: cell-based; conditions: 1 h
# T2 construct: endogenous in cells; host or cells: MNK2-KO mouse embryonic fibroblasts
# T2 sequence (O08605 whole entry): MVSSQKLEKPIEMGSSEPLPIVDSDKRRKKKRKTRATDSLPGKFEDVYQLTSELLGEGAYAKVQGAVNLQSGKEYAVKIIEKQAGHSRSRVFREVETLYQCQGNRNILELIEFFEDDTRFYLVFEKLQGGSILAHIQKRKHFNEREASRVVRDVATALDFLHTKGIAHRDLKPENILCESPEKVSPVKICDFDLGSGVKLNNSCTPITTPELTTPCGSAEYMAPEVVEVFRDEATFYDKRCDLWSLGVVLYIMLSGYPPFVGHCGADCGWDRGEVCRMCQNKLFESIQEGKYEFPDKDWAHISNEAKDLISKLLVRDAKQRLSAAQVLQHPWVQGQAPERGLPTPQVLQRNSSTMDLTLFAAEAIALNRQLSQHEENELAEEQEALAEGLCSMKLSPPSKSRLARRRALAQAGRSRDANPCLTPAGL
# Text: FIG. 16 provides the results of studies conducted on mouse embryonic fibroblasts (MEFs): MNK1-KO (A) or MNK2-KO (B). […] The graphs show combined data from three experiments. *, p<0.05 vs. untreated control; ****, p<0.0001, vs. untreated control.
# In some embodiments, the MNK inhibitor may preferably show selectivity and/or increased inhibitory potency to MNK2. A simple test for assessing the selectivity of an MNK inhibitor can be conducted by treating suitable cells from animals in which either MNK1 or MNK2 has been knocked out (eg mouse embryonic fibroblasts (MEFs) from MNK1-KO and MNK2-KO mice) with the MNK inhibitor. Since, in MNK1-KO MEFs, eIF4E phosphorylation depends on MNK2, and vice versa, monitoring the effect of different concentrations of an MNK inhibitor of interest on P-eIF4E levels in MNK-KO MEFs reports on the ability of that compound to inhibit MNK2 (MNK1-KO MEFs) or MNK1 (MNK2-KO MEFs).
# as §1
# [7] = molecular target: MNK1 (Homo sapiens, UniProt Q9BUB5); conditions: cited from earlier work
# Sequence of MNK1 (Homo sapiens, UniProt Q9BUB5) (Q9BUB5 whole entry, species assumed): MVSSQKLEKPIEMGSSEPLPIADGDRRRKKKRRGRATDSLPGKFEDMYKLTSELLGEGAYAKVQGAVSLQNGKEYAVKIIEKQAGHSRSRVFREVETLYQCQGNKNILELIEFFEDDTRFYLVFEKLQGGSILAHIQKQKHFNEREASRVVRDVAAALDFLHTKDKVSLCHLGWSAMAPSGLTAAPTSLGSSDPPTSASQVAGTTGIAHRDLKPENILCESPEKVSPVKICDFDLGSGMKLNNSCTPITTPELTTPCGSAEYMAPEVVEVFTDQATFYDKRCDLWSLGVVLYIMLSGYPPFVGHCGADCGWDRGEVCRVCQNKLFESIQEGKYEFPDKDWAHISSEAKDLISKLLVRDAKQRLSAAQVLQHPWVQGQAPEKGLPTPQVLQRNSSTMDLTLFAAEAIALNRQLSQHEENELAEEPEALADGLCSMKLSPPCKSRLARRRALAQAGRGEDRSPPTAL
SMILES,"Comments (ability to inhibit MNKs, eIF4E phosphorylation) [1]",also measured
Cc1c(C(=O)N2CCCCC2)sc2ncnc(Nc3ccc(F)cc3OC(C)C)c12 [MNK-7J],inactive,–
Cc1c(C(=O)NCCc2ccncc2)sc2ncnc(Nc3ccc(F)cc3OC(C)C)c12 [MNK-7U],Good activity,–
"CC(=O)C1=C(O)C=C2Oc3c(C(N)=O)c(O)cc(O)c3[C@]2(C)C1=O [cercosporamide, (9aS)-8-Acetyl-9,9a-dihydro-1,3,7-trihydroxy-9a-methyl-9-oxo-4-dibenzofurancaboxamide]",–,"lipid accumulation [2]: reduced lipid accumulation; induction of adipogenic genes such as PPARγ (mRNA) ([3]; 10 μM, 3T3-L1 cells): impaired the induction of genes such as PPARγ; inhibition of other protein kinases [4]: inhibit other protein kinases in addition to the MNKs"
Cc1c(C(=O)NCCc2c[nH]cn2)sc2ncnc(Nc3ccc(F)cc3OC(C)C)c12 [JX-MNK-7S],Good activity,–
Cc1c(C(=O)OCCO)sc2ncnc(Nc3ccc(F)cc3OC(C)C)c12 [MNK-7F],Weak activity,–
Cc1c(C(=O)OCCCO)sc2ncnc(Nc3ccc(F)cc3OC(C)C)c12 [MNK-7L],Partial activity,–
Cc1c(C(=O)N2CCCC2)sc2ncnc(Nc3ccc(F)cc3OC(C)C)c12 [MNK-7X],Partial actvitiy,–
COc1cc(F)ccc1Nc1ncnc2sc(C(=O)N3CCCCC3)c(C)c12 [MNK-5J],inactive,–
Cc1c(C(=O)NC2CCCCC2)sc2ncnc(Nc3ccc(F)cc3OC(C)C)c12 [MNK-7W],Partial activity,–
Cc1c(C(=O)NCCCN2CCCC2)sc2ncnc(Nc3ccc(F)cc3OC(C)C)c12 [MNK-I2],"Good activity, especially against MNK2","inhibition of P-eIF4E levels in MNK1-KO MEFs ([5]; 1 h, lowest concentration 0.1 μM): inhibited P-eIF4E levels almost completely at all concentrations tested; selectivity for MNK2 over MNK1 ([5]; comparison of MNK1-KO and MNK2-KO MEFs): selectivity of the MNK-I2 inhibitor for MNK2 over MNK1; inhibition of P-eIF4E in MNK2-KO MEFs [6]: weaker inhibitory effect than MNK-I1; inhibition of P-eIF4E / MNK activity ([1]; immunoblot): inhibits P-eIF4E strongly; induction of adipogenic genes (Cebpα, Cebpβ, Cebpδ, Pparγ, Fas, Acc, Cd36 mRNA) ([3]; 3T3-L1 cells with differentiation cocktail, RT-qPCR): impaired the induction of all of the genes in the adipogenic programme"
Cc1c(C(=O)N2CCOCC2)sc2ncnc(Nc3ccc(F)cc3OC(C)C)c12 [MNK-7K],Almost inactive,–
COc1cc(F)ccc1Nc1ncnc2sc(C(=O)NC3CCCCC3)c(C)c12 [MNK-5W],Moderate activity,–
Cc1c(C(=O)NCC(C)(C)CN(C)C)sc2ncnc(Nc3ccc(F)cc3OC(C)C)c12 [MNK-7P],Good activity,–
COc1cc(F)ccc1Nc1ncnc2sc(C(=O)N3CCOCC3)c(C)c12 [MNK-5K],Almost inactive,–
COc1cc(F)ccc1Nc1ncnc2sc(C(=O)N3CCN(C)CC3)c(C)c12 [MNK-5V],Almost inactive,–
COc1cc(F)ccc1Nc1ncnc2sc(C(=O)NCCc3ccncc3)c(C)c12 [MNK-5U],Moderate activity,–
Cc1c(C(=O)NCCCO)sc2ncnc(Nc3ccc(F)cc3OC(C)C)c12 [MNK-7I],Partially active,–
COC(=O)[C@@]1(C)C[C@@]2(C)O[C@]1(C)n1c3ccccc3c3c4c(c5c6ccccc6n2c5c31)C(=O)NC4 [CGP052088],–,IC50 [7]: 70 nM
COc1cc(F)ccc1Nc1ncnc2sc(C(=O)NCCCN3CCCC3)c(C)c12 [MNK-5M],Good activity,–
COc1cc(F)ccc1Nc1ncnc2sc(C(=O)NCCc3c[nH]cn3)c(C)c12 [MNK-5S],Moderate activity,–
COc1cc(F)ccc1Nc1ncnc2sc(C(=O)N3CCCC3)c(C)c12 [MNK-5X],Almost inactive,–
COc1cc(F)ccc1Nc1ncnc2sc(C(=O)NCC(C)(C)CN(C)C)c(C)c12 [MNK-5P],Moderate activity,–
COc1cc(F)ccc1Nc1ncnc2sc(C(=O)NCCCN3CCOCC3)c(C)c12 [MNK-5O],Good activity,–
Cc1c(C(=O)N2CCN(C)CC2)sc2ncnc(Nc3ccc(F)cc3OC(C)C)c12 [MNK-7V],Partial activity,–
Cc1c(C(=O)NCCCN2CCOCC2)sc2ncnc(Nc3ccc(F)cc3OC(C)C)c12 [MNK-7O],Good activity,–
Cc1c(C(=O)OCCc2ccccc2)sc2ncnc(Nc3ccc(F)cc3OC(C)C)c12 [MNK-7T],inactive,–
